Data taken from the CheMixHub viscosity set.
± gives the uncertainty stated by the source.

Experiment: xn = mol fraction of the nth substance listed
Conditions: 101 kPa

OCCCOCCCO + NCCN
viscosity [mPa·s]
Conditions | 293.15 K | 298.15 K | 303.15 K | 308.15 K | 313.15 K | 318.15 K
x1 = 0.023 | 1.77 ± 0.03 | 1.59 ± 0.03 | 1.34 ± 0.03 | 1.21 ± 0.03 | 1.09 ± 0.03 | 0.991 ± 0.029
x1 = 0.0474 | 2.1 ± 0.03 | 1.86 ± 0.03 | 1.55 ± 0.03 | 1.4 ± 0.03 | 1.24 ± 0.03 | 1.13 ± 0.03
x1 = 0.0733 | 2.51 ± 0.03 | 2.19 ± 0.03 | 1.81 ± 0.03 | 1.62 ± 0.03 | 1.44 ± 0.03 | 1.3 ± 0.03
x1 = 0.1007 | 3.07 ± 0.04 | 2.66 ± 0.03 | 2.16 ± 0.03 | 1.92 ± 0.03 | 1.71 ± 0.03 | 1.53 ± 0.03
x1 = 0.1299 | 3.75 ± 0.04 | 3.23 ± 0.04 | 2.59 ± 0.03 | 2.28 ± 0.03 | 2 ± 0.03 | 1.79 ± 0.03
x1 = 0.1611 | 4.7 ± 0.04 | 4.01 ± 0.04 | 3.16 ± 0.04 | 2.76 ± 0.03 | 2.43 ± 0.03 | –
x1 = 0.1943 | 5.97 ± 0.05 | 4.99 ± 0.05 | 3.9 ± 0.04 | 3.34 ± 0.04 | 2.88 ± 0.04 | –
x1 = 0.23 | 7.72 ± 0.06 | 6.39 ± 0.05 | 4.91 ± 0.05 | 4.16 ± 0.04 | 3.55 ± 0.04 | –
x1 = 0.2682 | 10.2 ± 0.1 | 8.28 ± 0.06 | 6.24 ± 0.05 | 5.22 ± 0.05 | 4.37 ± 0.04 | –
x1 = 0.3094 | 13.7 ± 0.1 | 10.9 ± 0.1 | 8.09 ± 0.06 | 6.65 ± 0.05 | 5.56 ± 0.05 | –
x1 = 0.3538 | 18.7 ± 0.1 | 14.7 ± 0.1 | 10.7 ± 0.1 | 8.62 ± 0.07 | 7 ± 0.06 | –
x1 = 0.4019 | 25.9 ± 0.2 | 19.8 ± 0.1 | 14.1 ± 0.1 | 11.1 ± 0.1 | 8.87 ± 0.07 | –
x1 = 0.4541 | 36.7 ± 0.3 | 26.7 ± 0.2 | 18.6 ± 0.1 | 14.4 ± 0.1 | 11.2 ± 0.1 | –
x1 = 0.5111 | 48.7 ± 0.3 | 35.4 ± 0.2 | 24.1 ± 0.2 | 18.4 ± 0.1 | 14.1 ± 0.1 | –
x1 = 0.5734 | 63.9 ± 0.4 | 45.7 ± 0.3 | 30.6 ± 0.2 | 22.9 ± 0.2 | 17.4 ± 0.1 | –
x1 = 0.6418 | 79.4 ± 0.8 | 56.4 ± 0.3 | 37.3 ± 0.3 | 27.6 ± 0.2 | 20.7 ± 0.1 | –
x1 = 0.7174 | 93.8 ± 1.1 | 66 ± 0.5 | 43.3 ± 0.3 | 31.9 ± 0.2 | 23.7 ± 0.2 | –
x1 = 0.8013 | 105 ± 2 | 73.2 ± 0.6 | 47.9 ± 0.3 | 35.1 ± 0.2 | 26 ± 0.2 | –
x1 = 0.8949 | 112 ± 2 | 77.9 ± 0.7 | 50.6 ± 0.3 | 36.8 ± 0.2 | 27.3 ± 0.2 | –
